# Source: ChEMBL document CHEMBL3044598, “Study of inhibitory effects and action mechanism of the novel fungicide pyrimorph against Phytophthora capsici” (J Agric Food Chem, 2010)
# Calls of active or inactive are those of the source. The calls are words filed in the database; no cut-off is given here.
# Experiments:
# Phytophthora capsici [1] = assay: Inhibition of sporangia formation of Phytophthora capsici treated 240 min after sporangia incubation followed by compound exposure for 60 min by light microscopy; assay type: functional, organism-based
# Phytophthora capsici [2] = assay: Inhibition of cytospore germination of Phytophthora capsici at 2 ug/mL after 24 hr; assay type: functional
# Phytophthora capsici [3] = assay: Inhibition of cytospore germination of Phytophthora capsici at 1 ug/mL after 24 hr; assay type: functional
# Phytophthora capsici [4] = assay: Inhibition of cytospore germination of Phytophthora capsici at 0.2 ug/mL after 24 hr; assay type: functional
# Phytophthora capsici [5] = assay: Inhibition of cytospore germination of Phytophthora capsici at 0.5 ug/mL after 24 hr; assay type: functional
# Phytophthora capsici [6] = assay: Inhibition of cytospore germination of Phytophthora capsici at 0.1 ug/mL after 24 hr; assay type: functional
# Phytophthora capsici [7] = assay: Inhibition of sporangia formation of Phytophthora capsici at 2 ug/mL treated 240 min after sporangia incubation followed by compound exposure for 60 min by light microscopy; assay type: functional
# Phytophthora capsici [8] = assay: Inhibition of sporangia formation of Phytophthora capsici at 1 ug/mL treated 240 min after sporangia incubation followed by compound exposure for 60 min by light microscopy; assay type: functional
# Phytophthora capsici [9] = assay: Inhibition of sporangia formation of Phytophthora capsici at 0.5 ug/mL treated 240 min after sporangia incubation followed by compound exposure for 60 min by light microscopy; assay type: functional
# Phytophthora capsici [10] = assay: Inhibition of sporangia formation of Phytophthora capsici at 0.2 ug/mL treated 240 min after sporangia incubation followed by compound exposure for 60 min by light microscopy; assay type: functional
# Phytophthora capsici [11] = assay: Inhibition of sporangia formation of Phytophthora capsici at 0.1 ug/mL treated 240 min after sporangia incubation followed by compound exposure for 60 min by light microscopy; assay type: functional
# Phytophthora capsici [12] = assay: Inhibition of mycelial radial growth of Phytophthora capsici incubated at 25 degC for 5 days; assay type: functional, organism-based; details: 120 h
# Phytophthora capsici [13] = assay: Inhibition of mycelial radial growth of Phytophthora capsici at 5 ug/mL incubated at 25 degC for 5 days in presence of 5 ug/mL ATP; assay type: functional; details: 120 h
# Phytophthora capsici [14] = assay: Inhibition of mycelial radial growth of Phytophthora capsici at 5 ug/mL incubated at 25 degC for 5 days in presence of 1 ug/mL ATP; assay type: functional
# Phytophthora capsici [15] = assay: Inhibition of mycelial radial growth of Phytophthora capsici at 10 ug/mL incubated at 25 degC for 5 days in absence of 5 ug/mL ATP; assay type: functional
# Phytophthora capsici [16] = assay: Inhibition of mycelial radial growth of Phytophthora capsici at 10 ug/mL incubated at 25 degC for 5 days in presence of 5 ug/mL ATP; assay type: functional
# Phytophthora capsici [17] = assay: Inhibition of mycelial radial growth of Phytophthora capsici at 10 ug/mL incubated at 25 degC for 5 days in presence of 1 ug/mL ATP; assay type: functional
# Phytophthora capsici [18] = assay: Inhibition of mycelial radial growth of Phytophthora capsici at 5 ug/mL incubated at 25 degC for 5 days; assay type: functional; details: 120 h
# Phytophthora capsici [19] = assay: Inhibition of mycelial radial growth of Phytophthora capsici at 2 ug/mL incubated at 25 degC for 5 days; assay type: functional; details: 120 h
# Phytophthora capsici [20] = assay: Induction of morphological changes in Phytophthora capsici assessed as distortion of vacuoles and vesicles in dense bodies at 10 ug/mL by transmission electron microscopy; assay type: functional, organism-based
# Phytophthora capsici [21] = assay: Induction of morphological changes in Phytophthora capsici assessed as increase in dense bodies at 10 ug/mL by transmission electron microscopy; assay type: functional, organism-based
# Phytophthora capsici [22] = assay: Induction of morphological changes in Phytophthora capsici assessed as induction of distortion of cell wall at 10 ug/mL by transmission electron microscopy; assay type: functional, organism-based
# Phytophthora capsici [23] = assay: Induction of morphological changes in Phytophthora capsici assessed as induction of multilayered cell wall development at 10 ug/mL by transmission electron microscopy; assay type: functional, organism-based
# Phytophthora capsici [24] = assay: Induction of morphological changes in Phytophthora capsici assessed as reduction in number of vesicles at 5 ug/mL by transmission electron microscopy; assay type: functional, organism-based
# Phytophthora capsici [25] = assay: Inhibition of mycelial radial growth of Phytophthora capsici at 1 ug/mL incubated at 25 degC for 5 days; assay type: functional; details: 120 h
# Phytophthora capsici [26] = assay: Inhibition of mycelial radial growth of Phytophthora capsici at 0.6 ug/mL incubated at 25 degC for 5 days; assay type: functional; details: 120 h
# Phytophthora capsici [27] = assay: Induction of morphological changes in Phytophthora capsici assessed as increase in extensive cell wall proliferation at 5 ug/mL by transmission electron microscopy; assay type: functional, organism-based
# Phytophthora capsici [28] = assay: Induction of morphological changes in Phytophthora capsici assessed as increase in abnormal mycelial configurations at 10 ug/mL by scanning electron microscopy; assay type: functional, organism-based
# Phytophthora capsici [29] = assay: Induction of morphological changes in Phytophthora capsici assessed as increase in mycelial ramifications at 10 ug/mL by scanning electron microscopy; assay type: functional, organism-based
# Phytophthora capsici [30] = assay: Induction of morphological changes in Phytophthora capsici assessed as increase in mycelial colony density at 10 ug/mL by scanning electron microscopy; assay type: functional, organism-based
# Phytophthora capsici [31] = assay: Induction of morphological changes in Phytophthora capsici assessed as abnormal mycelial growth at 10 ug/mL by scanning electron microscopy; assay type: functional, organism-based
# Phytophthora capsici [32] = assay: Induction of morphological changes in Phytophthora capsici assessed as increase in mycelial colony density at 5 ug/mL by scanning electron microscopy; assay type: functional, organism-based
# Phytophthora capsici [33] = assay: Induction of morphological changes in Phytophthora capsici assessed as abnormal mycelial growth at 5 ug/mL by scanning electron microscopy; assay type: functional, organism-based
# Phytophthora capsici [34] = assay: Inhibition of intact mycelial respiration of Phytophthora capsici assessed as superpose rate of oxygen consumption at 100 ug/mL in presence of sodium phosphate; assay type: functional; set-up: scale not given: the % may be the effect or the level left
# Phytophthora capsici [35] = assay: Inhibition of intact mycelial respiration of Phytophthora capsici assessed as superpose rate of oxygen consumption at 100 ug/mL in presence of iodoacetic acid; assay type: functional; set-up: scale not given: the % may be the effect or the level left
# Phytophthora capsici [36] = assay: Inhibition of intact mycelial respiration of Phytophthora capsici assessed as superpose rate of oxygen consumption at 100 ug/mL in presence of malonic acid; assay type: functional; set-up: scale not given: the % may be the effect or the level left
# Phytophthora capsici [37] = assay: Inhibition of intact mycelial respiration of Phytophthora capsici at 100 ug/mL in presence of sodium phosphate; assay type: functional
# Phytophthora capsici [38] = assay: Inhibition of intact mycelial respiration of Phytophthora capsici at 100 ug/mL in presence of iodoacetic acid; assay type: functional
# Phytophthora capsici [39] = assay: Inhibition of intact mycelial respiration of Phytophthora capsici at 100 ug/mL in presence of malonic acid; assay type: functional
# Phytophthora capsici [40] = assay: Inhibition of intact mycelial respiration of Phytophthora capsici at 100 ug/mL; assay type: functional
# Phytophthora capsici [41] = assay: Inhibition of zoospore release of Phytophthora capsici at 100 ug/mL; assay type: functional
# Phytophthora capsici [42] = assay: Inhibition of zoospore release of Phytophthora capsici at 50 ug/mL; assay type: functional
# Phytophthora capsici [43] = assay: Inhibition of zoospore release of Phytophthora capsici at 25 ug/mL; assay type: functional
# Phytophthora capsici [44] = assay: Inhibition of zoospore release of Phytophthora capsici at 6 ug/mL; assay type: functional
# Phytophthora capsici [45] = assay: Inhibition of zoospore release of Phytophthora capsici at 12 ug/mL; assay type: functional
# Phytophthora capsici [46] = assay: Inhibition of zoospore release of Phytophthora capsici; assay type: functional, organism-based
# Phytophthora capsici [47] = assay: Inhibition of cytospore germination of Phytophthora capsici after 24 hr; assay type: functional, organism-based
# Phytophthora capsici [48] = assay: Inhibition of intact mycelial respiration of Phytophthora capsici assessed as superpose rate of oxygen consumption at 10 ug/mL in presence of sodium phosphate; assay type: functional; set-up: scale not given: the % may be the effect or the level left
# Phytophthora capsici [49] = assay: Inhibition of intact mycelial respiration of Phytophthora capsici assessed as superpose rate of oxygen consumption at 10 ug/mL in presence of iodoacetic acid; assay type: functional; set-up: scale not given: the % may be the effect or the level left
# Phytophthora capsici [50] = assay: Inhibition of intact mycelial respiration of Phytophthora capsici assessed as superpose rate of oxygen consumption at 10 ug/mL in presence of malonic acid; assay type: functional; set-up: scale not given: the % may be the effect or the level left
# Phytophthora capsici [51] = assay: Inhibition of intact mycelial respiration of Phytophthora capsici at 10 ug/mL in presence of sodium phosphate; assay type: functional
# Phytophthora capsici [52] = assay: Inhibition of intact mycelial respiration of Phytophthora capsici at 10 ug/mL in presence of iodoacetic acid; assay type: functional
# Phytophthora capsici [53] = assay: Inhibition of intact mycelial respiration of Phytophthora capsici at 10 ug/mL in presence of malonic acid; assay type: functional
# Phytophthora capsici [54] = assay: Inhibition of intact mycelial respiration of Phytophthora capsici at 10 ug/mL; assay type: functional
smiles,measurement,setting,value
CC(C)(C)c1ccc(/C(=C/C(=O)N2CCOCC2)c2ccnc(Cl)c2)cc1 [PYRIMORPH],EC50,Phytophthora capsici [1],0.17 µg/mL
same,EC90,Phytophthora capsici [1],3.21 µg/mL
same,inhibition at 2 µg/mL,Phytophthora capsici [2],84%
same,inhibition at 1 µg/mL,Phytophthora capsici [3],71%
same,inhibition at 0.2 µg/mL,Phytophthora capsici [4],56%
same,inhibition at 0.5 µg/mL,Phytophthora capsici [5],68%
same,inhibition at 0.1 µg/mL,Phytophthora capsici [6],54%
same,inhibition at 2 µg/mL,Phytophthora capsici [7],85%
same,inhibition at 1 µg/mL,Phytophthora capsici [8],75%
same,inhibition at 0.5 µg/mL,Phytophthora capsici [9],66%
same,inhibition at 0.2 µg/mL,Phytophthora capsici [10],57%
same,inhibition at 0.1 µg/mL,Phytophthora capsici [11],52%
same,EC50,Phytophthora capsici [12],1.84 µg/mL
same,EC90,Phytophthora capsici [12],5.71 µg/mL
same,inhibition at 5 µg/mL,Phytophthora capsici [13],72%
same,inhibition (INH),Phytophthora capsici [14],75%
same,inhibition (INH),Phytophthora capsici [15],98%
same,inhibition (INH),Phytophthora capsici [16],77%
same,inhibition (INH),Phytophthora capsici [17],78.1%
same,inhibition at 5 µg/mL,Phytophthora capsici [18],81%
same,inhibition at 2 µg/mL,Phytophthora capsici [19],57%
same,Activity,Phytophthora capsici [20],Active
same,Activity,Phytophthora capsici [21],Active
same,Activity,Phytophthora capsici [22],Active
same,Activity,Phytophthora capsici [23],Active
same,Activity,Phytophthora capsici [24],Active
same,inhibition at 1 µg/mL,Phytophthora capsici [25],28%
same,inhibition at 0.6 µg/mL,Phytophthora capsici [26],9%
same,Activity,Phytophthora capsici [27],Active
same,Activity,Phytophthora capsici [28],Active
same,Activity,Phytophthora capsici [29],Active
same,Activity,Phytophthora capsici [30],Active
same,Activity,Phytophthora capsici [31],Active
same,Activity,Phytophthora capsici [32],Active
same,Activity,Phytophthora capsici [33],Active
same,Activity,Phytophthora capsici [34],5.22%
same,Activity,Phytophthora capsici [35],32.61%
same,Activity,Phytophthora capsici [36],18.31%
same,inhibition at 100 µg/mL,Phytophthora capsici [37],44%
same,inhibition at 100 µg/mL,Phytophthora capsici [38],60.2%
same,inhibition at 100 µg/mL,Phytophthora capsici [39],51.8%
same,inhibition at 100 µg/mL,Phytophthora capsici [40],41%
same,inhibition at 100 µg/mL,Phytophthora capsici [41],95%
same,inhibition at 50 µg/mL,Phytophthora capsici [42],94%
same,inhibition at 25 µg/mL,Phytophthora capsici [43],80%
same,inhibition at 6 µg/mL,Phytophthora capsici [44],58%
same,inhibition at 12 µg/mL,Phytophthora capsici [45],65%
same,EC50,Phytophthora capsici [46],4.92 µg/mL
same,EC90,Phytophthora capsici [46],45.7 µg/mL
same,EC50,Phytophthora capsici [47],0.09 µg/mL
same,EC90,Phytophthora capsici [47],8.16 µg/mL
CO/C=C(/C(=O)OC)c1ccccc1Oc1cc(Oc2ccccc2C#N)ncn1 [AZOXYSTROBIN],Activity,Phytophthora capsici [48],51.36%
same,Activity,Phytophthora capsici [49],53.27%
same,Activity,Phytophthora capsici [50],9.02%
same,inhibition at 10 µg/mL,Phytophthora capsici [51],86.2%
same,inhibition at 10 µg/mL,Phytophthora capsici [52],86.8%
same,inhibition at 10 µg/mL,Phytophthora capsici [53],74.2%
same,inhibition at 10 µg/mL,Phytophthora capsici [54],71.7%
COc1ccc(C(=CC(=O)N2CCOCC2)c2ccc(Cl)cc2)cc1OC [DIMETHOMORPH],Activity,Phytophthora capsici [34],44.06%
same,Activity,Phytophthora capsici [35],51.62%
same,Activity,Phytophthora capsici [36],49.91%
same,inhibition at 100 µg/mL,Phytophthora capsici [37],55%
same,inhibition at 100 µg/mL,Phytophthora capsici [38],61.1%
same,inhibition at 100 µg/mL,Phytophthora capsici [39],59.6%
same,inhibition at 100 µg/mL,Phytophthora capsici [40],19.4%
